# Laboratory results reported in publication PMC2222952, “Structural and Biochemical Bases for the Inhibition of Autophagy and Apoptosis by Viral BCL-2 of Murine γ-Herpesvirus 68” (PLoS Pathogens, 2008).
# “Also recorded” adds a separate entry of the source. Ends that are not written are not given here.
# T1: M11, viral BCL-2 of murine γ-herpesvirus 68 (residues 1–137) (Murid herpesvirus 4, UniProt P89884)
# T1 construct: Each of the DNA fragments coding for M11 (residues 1–137); His6 tag; This is inferred: pPROEX HTa encodes an N-terminal His tag with a TEV site, and purification was on Ni-NTA; (N); made in house; host or cells: E. coli BL21(DE3)
# T1 sequence (P89884 whole entry, looked up): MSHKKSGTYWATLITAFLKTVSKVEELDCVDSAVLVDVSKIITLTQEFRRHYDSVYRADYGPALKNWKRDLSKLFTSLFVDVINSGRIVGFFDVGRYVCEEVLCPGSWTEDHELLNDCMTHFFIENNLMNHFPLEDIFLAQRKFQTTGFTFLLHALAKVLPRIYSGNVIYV
# T2: mouse BAD (residues 43–204) (mouse, UniProt Q61337 43-204)
# T2 sequence (looked up): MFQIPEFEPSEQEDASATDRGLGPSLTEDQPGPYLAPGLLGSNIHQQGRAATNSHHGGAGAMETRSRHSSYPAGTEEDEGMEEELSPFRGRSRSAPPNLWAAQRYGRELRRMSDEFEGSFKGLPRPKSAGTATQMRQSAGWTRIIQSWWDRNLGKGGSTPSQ
# T3: M11 (residues 1–137), purified alone (murine γ-herpesvirus 68, UniProt P89884 1-137)
# T3 chain: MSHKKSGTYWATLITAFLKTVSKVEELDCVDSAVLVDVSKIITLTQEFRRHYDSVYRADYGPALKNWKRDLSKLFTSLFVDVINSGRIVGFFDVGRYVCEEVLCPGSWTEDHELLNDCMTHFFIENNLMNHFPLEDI
# T4: M11 (residues 1–137), coexpressed with Beclin1(101–150) (murine γ-herpesvirus 68, UniProt P89884 1-137)
# T4 sequence: T3 chain
# B1: mouse BCL-XL (residues 1–44 and 85–196) (domain or fragment, UniProt Q64373-1 1-196, looked up)
# chain: MSQSNRELVVDFLSYKLSQKGYSWSQFSDVEENRTEAPEETEAEAVKQALREAGDEFELRYRRAFSDLTSQLHITPGTAYQSFEQVVNELFRDGVNWGRIVAFFSFGGALCVESVDKEMQVLVSRIASWMATYLNDHLEPWIQENGGWDTFVDLYG
# notes: also called BCL-XL lacking the internal long loop and the C-terminal tail region
# B2: Beclin1(101–150) (domain or fragment, mouse, UniProt O88597 101-150, looked up)
# chain: ASDGGTMENLSRRLKVTGDLFDIMSGQTDVDHPLCEECTDTLLDQLDTQL
# notes: also called mouse Beclin1 fragment consisting of residues 101–150; 50-residue Beclin1 fragment
# Experiments:
# Beclin1 peptide = Beclin1 peptide (UniProt Q14457); conditions: cited from earlier work
# A1 ∆C20 = system: A1 ∆C20; parameters: method as in earlier work; conditions: Table S1; relative values, not absolute KD; peptides of Chen et al. are the same as or 1 to 2 residues shorter than those of this paper; read-out: binding affinity for A1 ∆C20 (relative value, competitive binding assay); cited from earlier work
# BCL-w ∆C29 = conditions: Table S1; relative values, not absolute KD; peptides of Chen et al. are the same as or 1 to 2 residues shorter than those of this paper; read-out: binding affinity for BCL-w ∆C29 (relative value, competitive binding assay); cited from earlier work
# BCL-XL ∆C24 = conditions: Table S1; relative values, not absolute KD; peptides of Chen et al. are the same as or 1 to 2 residues shorter than those of this paper; read-out: binding affinity for BCL-XL ∆C24 (relative value, competitive binding assay); cited from earlier work
# [1] = system: M11–Beclin1(101–267) complex; test: Displacement test on M11–Beclin1(101–267) complex; format: binding, murine γ-herpesvirus 68; conditions: M11 mixed with Beclin1(101–267) at 1:1 molar ratio, 1 h; BH3 peptide added, additional 1 h; gel
# Description: (§1) A newly identified function of BCL-2 is the down regulation of autophagy through their inhibitory binding to Beclin1, which appears critical for cellular homeostasis. […] The weak interaction explains the recent observation that endogenous BH3-only proteins induce autophagy by displacing Beclin1 from BCL-2/BCL-XL [31]. Like the cellular kin, two viral BCL-2 proteins from γHV68 and KSHV are known to inhibit autophagy in addition to suppressing apoptotic death of cells. In this study, we provided the structural basis for the inhibitory interaction of M11 with Beclin1, which is reminiscent of the canonical interaction between a BH3 peptide and a BH3-binding groove. […] As a confirmatory experiment, we carried out a displacement test, where a complex between two proteins was challenged by another protein. […] Conceivably, M11 could negate the proautophagic role of the BH3-only proteins under apoptosis-inducing conditions in contrast with BCL-2/BCL-XL.
# The complexes between each of the BH3 peptides and BCL-2 or BCL-XL appeared. The numbers above the gels indicate the final concentrations of the indicated proteins and peptides. The schematic drawings are shown to help to understand the experimental scheme and results. (1.8 MB TIF) Click here for additional data file.
# BCL-2 ∆C22 = system: BCL-2 ∆C22; parameters: method as in earlier work; conditions: Table S1; relative values, not absolute KD; peptides of Chen et al. are the same as or 1 to 2 residues shorter than those of this paper; read-out: binding affinity for BCL-2 ∆C22 (relative value, competitive binding assay); cited from earlier work
# MCL ∆N151 ∆C23 = system: MCL ∆N151 ∆C23; parameters: method as in earlier work; conditions: Table S1; relative values, not absolute KD; peptides of Chen et al. are the same as or 1 to 2 residues shorter than those of this paper; read-out: binding affinity for MCL ∆N151 ∆C23 (relative value, competitive binding assay); cited from earlier work
# [2] = system: BCL-2–Beclin1(101–267) complex; test: Displacement test on BCL-2–Beclin1(101–267) complex; format: binding, human; conditions: BCL-2 mixed with Beclin1(101–267) at 1:4 molar ratio, 1 h; BH3 peptide added; gel
# Description: as §1
# (§2) Each of the DNA fragments coding for M11 (residues 1–137), mouse BCL-XL (residues 1–44 and 85–196) or mouse Beclin1 (residues 101–267) was cloned into pPROEX HTa. A plasmid containing the DNA segment coding for human BCL-2 (residues 1–50 and 92–207) was also constructed. […]
# [3] = molecular target: T1, M11, viral BCL-2 of murine γ-herpesvirus 68 (residues 1–137); format: binding; conditions: 25 °C, 20 mM Tris-HCl (pH 7.4), 100 mM NaCl
# Description: “HT”, “CCD” and “ECD” denote hydrophobic tail, coiled-coil domain and evolutionarily conserved domain, respectively. […] The surface coloring scheme is as follows: olive for Val, Leu, Ile, Phe, Trp, Met, and Ala; yellow for Cys, Gly, Tyr, and Pro; gray for other amino acids. […] Only the BH3-binding groove region of M11 is shown for clarity. […] The arrows indicate the movements of the Cα atoms of Asp59 and Tyr60 in M11. (C) ITC analysis.
# Figure 5 Analyses of the Interactions between M11 or BCL-2 Proteins and BAX/BAK (A) Cell-based binding assay. 293T cells were transfected with HA-tagged BAK or Flag-tagged BAX together with the indicated GST-tagged prosurvival BCL-2 proteins. Whole cell lysates were used for immunoprecipitation with anti-GST followed by immunoblotting with anti-HA or anti-Flag. […] (B) ITC analyses of the interactions of M11 with the BH3 peptides of BAX or BAK. The ITC analysis was carried out by titrating 0.1 mM of the indicated peptides into 5 μM of M11. The ITC run for the titration of the 26-mer BAK peptide is shown. […] NIH3T3 cells were transfected with HA-tagged M11 and whole cell lysates were used for immunoprecipitation with control rabbit serum or anti-BAK followed by immunoblotting with anti-HA.
# A plasmid containing the DNA segment coding for human BCL-2 (residues 1–50 and 92–207) was also constructed. The resulting protein lacks the internal long loop (residues 51–91) and contains a replacement of residues 35–50 with residues 33–48 of BCL-XL, which was necessary for the solubility of the protein as reported earlier. Each construct was introduced into the E. coli BL21(DE3) strain. The proteins were expressed at 21 °C overnight and purified using a Ni-NTA column and a Hitrap Q anion exchange column.
# All measurements were carried out at 25 °C on a MicroCalorimetry System (MicroCal). Protein samples were dialyzed against the solution containing 20 mM Tris-HCl (pH 7.4) and 100 mM NaCl. The samples were degassed for 20 min and centrifuged to remove any residuals prior to the measurements. Dilution enthalpies were measured in separate experiments (titrant into buffer) and subtracted from the enthalpies of the binding between the protein and the titrant. Data were analyzed using the Origin software (OriginLab Corp.).
# [4] = system: BCL-XL–Beclin1(101–267) complex; test: Displacement test on BCL-XL–Beclin1(101–267) complex; format: binding, mouse; conditions: BCL-XL mixed with Beclin1(101–267) at 1:4 molar ratio, 1 h; BH3 peptide added; gel
# Description: as §1, §2
# [5] = molecular target: T2, mouse BAD (residues 43–204); test: crystal structure; BCL-XL (1–44, 85–196) coexpressed and co-purified with BAD(43–204); hanging drop, 4 °C, 10% PEG 1000, 10% PEG 8000; 2.3 Å; conditions: both partners purified
# [6] = molecular target: T3, M11 (residues 1–137), purified alone; test: ITC
# [7] = molecular target: T4, M11 (residues 1–137), coexpressed with …; test: crystal structure; conditions: both partners purified
Molecule,IC50 (A1 ∆C20) [nM],IC50 (BCL-w ∆C29) [nM],IC50 (BCL-XL ∆C24) [nM],IC50 (BCL-2 ∆C22) [nM],also measured
BCL-XL (from UniProt Q07817),–,–,–,–,Kd (Beclin1 peptide): 1100 nM
CC[C@H](C)[C@H](NC(=O)[C@H](CCCCN)NC(=O)[C@H](CCCNC(=N)N)NC(=O)[C@H](CC(C)C)NC(=O)[C@H](CCC(N)=O)NC(=O)[C@H](C)NC(=O)[C@H](C)NC(=O)[C@H](Cc1ccccc1)NC(=O)[C@H](CCC(=O)O)NC(=O)[C@@H]1CCCN1C(=O)[C@@H]1CCCN1C(=O)[C@H](CC(C)C)NC(=O)[C@H](CCC(=O)O)NC(=O)[C@H](C)NC(=O)[C@@H](N)CCCNC(=N)N)C(=O)NCC(=O)N[C@@H](CC(=O)O)C(=O)N[C@@H](CCCCN)C(=O)N[C@H](C(=O)N[C@@H](Cc1ccc(O)cc1)C(=O)N[C@@H](CS)C(=O)N[C@H](C(=O)N[C@@H](Cc1c[nH]c2ccccc12)C(=O)N[C@@H](CO)C(=O)N[C@@H](C)C(=O)N1CCC[C@H]1C(=O)O)[C@@H](C)O)C(C)C [Noxa],180,> 100000,> 100000,> 100000,displacement of Beclin1(101–267) bound to M11 by BH3 peptide [1]: remained intact; also recorded: failed to displace
"BAD: synthetic 27-mer BH3 peptide, residues 137–163 of BAD (TATQMRQSSSWTRVFQSWWDRNLGRGS; BH3 peptide; UniProt Q92934 137-163, looked up, fragment)",15000,30,5.3,16,"IC50 (MCL ∆N151 ∆C23): > 100000 nM; displacement of Beclin1(101–267) bound to BCL-2 by BH3 peptide [2]: easily disrupted; interaction with M11 in ITC, in words (KD could not be deduced) [3]: did not interact or poorly interacted; displacement of Beclin1(101–267) bound to BCL-XL by BH3 peptide [4]: easily disrupted"
EEIIHNIARHLAQIGDEMDHNIQPT [BID],9.3,40,82,6800,displacement of Beclin1(101–267) bound to M11 by BH3 peptide [1]: remained intact; also recorded: failed to displace
B1,–,–,–,–,binding result [5]: binds
"HRAEVQIARKLQCIADQFHRLHTQ [BMF BH3 peptide, 24-mer (residues 214–237 of BMF)]",–,–,–,–,Kd [6]: 300 nM
B2,–,–,–,–,binding result [7]: binds
